The results in this text go back to ChEMBL document CHEMBL1212812, “Multi-target spectral moment QSAR versus ANN for antiparasitic drugs against different parasite species” (Bioorg Med Chem, 2010).

In the test the test system is Plasmodium falciparum. In words: Antimicrobial activity against Plasmodium falciparum. It counts as functional, organism-based.
Broadly, the IC50 is the midpoint of a concentration-inhibition curve. As to `Nc1ncc(Cc2cccc(Oc3ccccc3)c2)c(N)n1`, the IC50 amounted to 30 µM. Take `COc1cc(NC(C)CCCN)c2nccc(C)c2c1OCc1ccc(C(F)(F)F)cc1` (stereo not drawn): the midpoint of inhibition, the IC50, lay at 3 µM. Then `COc1cc(NC(C)CCCN)c2nccc(C)c2c1OCc1cccc(C(F)(F)F)c1` (stereo not drawn), with 2 µM; and `COc1cc(NC(C)CCCN)c2nccc(C)c2c1OCCCCCc1ccccc1` (stereo not drawn), with 5 µM. `COc1cc(NC(C)CCCN)c2nccc(C)c2c1OCCCCc1ccccc1` (stereo not drawn) showed an IC50 of 174 µM. This IC50 lies about 35-fold higher than the previous one. In turn, `COc1cc(NC(C)CCCN)c2nccc(C)c2c1OCCCCCc1ccccc1C(F)(F)F` (stereo not drawn) yielded an IC50 of 5 µM. For `COc1cc(NC(C)CCCN)c2nccc(C)c2c1OCCCCCc1ccc(C(F)(F)F)cc1` (stereo not drawn), the IC50 came out at 2 µM. Then `CCCCCCOc1c(OC)cc(NC(C)CCCN)c2nc(OC)c(C)cc12` (stereo not drawn), with 38 µM.

`COc1cc(NC(C)CCCN)c2nccc(C)c2c1OCCCCCc1cccs1` (stereo not drawn): the IC50 is 3 µM. As to `COc1cc(NC(C)CCCN)c2nccc(C)c2c1OCCCCCc1c(C)cccc1C` (stereo not drawn), the IC50 amounted to 22 µM. This IC50 is about 7.3-fold higher than that of the compound before.

As to `N/C(=N\O)c1cc(O)c(O)c(O)c1`, it took 38 µM to reach half-maximal inhibition (IC50). Compound `N/C(=N\O)c1ccc(O)c(O)c1` had an IC50 of 23 µM. Regarding `N/C(=N\O)c1cc(O)cc(O)c1`, the IC50 was determined as 589 µM. For the compound `COc1cc(/C(N)=N/O)cc(OC)c1OC`, inhibition was half-maximal at 2010 µM (IC50).

In the case of `CC(=O)C(N)c1cc(O)c(O)c(O)c1` (stereo not drawn), the IC50 is 301 µM. Turning to `CC1(C)Oc2c(c3nc4ccccc4nc3c3ccccc23)CC1Br` (stereo not drawn), the IC50 came out at 9 µM.

In the case of `Nc1ncc(Cc2ccc(OCc3ccccc3)c(OCc3ccccc3)c2)c(N)n1`, the IC50 was 3 µM.

In the case of `COc1cc(Cc2cnc(N)nc2N)ccc1OCc1ccccc1`, inhibition was half-maximal at 5 µM (IC50). As for `COc1cc(Cc2cnc(N)nc2N)ccc1OCc1cc(OC)c(OC)c(OC)c1`, inhibition was half-maximal at 31 µM (IC50).

`O=C(NO)c1cccc(O)c1O` had an IC50 of 6 µM.

`Nc1ncc(Cc2cccc(OCc3ccccc3)c2)c(N)n1` yielded an IC50 of 3 µM. Then `COc1ccc(Cc2cnc(N)nc2N)cc1OCc1ccccc1`, with 4 µM; and `COc1cc(Cc2c(C)nc(N)nc2N)cc(OC)c1OC`, with 23 µM; and `NNC(=O)c1ccc(N2CCN(c3ccc(C(=O)NN)cc3)CC2)cc1`, with 1 µM. With `Nc1nc(N)c(-c2cccc(Cl)c2)c(CCCOC(=O)c2ccccc2)n1`, it took 8 µM to reach half-maximal inhibition (IC50).

In turn, `Nc1nc(N)c(-c2cccc(Cl)c2)c(CCCOC(=O)OCc2ccccc2)n1` yielded an IC50 of 2 µM.

On to `O=C(NO)c1ccc(O)c(O)c1`, for which 16 µM corresponded to half-maximal inhibition (IC50). As for `COc1cc(COc2ccc(Cc3cnc(N)nc3N)cc2)cc(OC)c1OC`, the IC50 is 21 µM. Consider `CCc1nc(N)nc(N)c1Cc1cc(OC)c(OC)c(OC)c1`, for which the IC50 was 50 µM. The compound `Nc1nc(N)c(-c2cccc(Cl)c2)c(CCCO)n1` returned an IC50 of 1 µM.

For `CCOC(=O)c1ccc(N2CCN(c3ccc(C(=O)OCC)cc3)CC2)cc1`, the IC50 was 1 µM. In turn, `CC(=O)OCCCc1nc(N)nc(N)c1-c1cccc(Cl)c1` yielded an IC50 of 2 µM. `Nc1ncc(Cc2ccc(OCc3ccccc3)cc2)c(N)n1` displayed a half-inhibitory concentration (IC50) of 21 µM. This IC50 is about 10-fold higher than that of the compound before.

`NC(=O)C1C2c3ccccc3C(c3ccccc32)C1C(N)=O` (single isomer, unassigned) showed an IC50 of 42 µM.

In turn, `CCCNC(=O)CC[C@@H](C)[C@H]1CC[C@H]2[C@@H]3[C@H](OC(C)=O)C[C@@H]4CC5(CC[C@]4(C)[C@H]3CC[C@]12C)OOC1(CCC(CC)CC1)OO5` (single isomer, unassigned; form 2) showed an IC50 of 1 µM. `CCCCN(CC)C(P(=O)(O)O)P(=O)(O)O` [(BUTYL(ETHYL)AMINO)METHYLENEDIPHOSPHONIC ACID] showed an IC50 of 200 µM. With `O=P(O)(O)C(NC1CCCCC1)P(=O)(O)O` [(CYCLOHEXYLAMINO)METHYLENEDIPHOSPHONIC ACID], the IC50 came to 200 µM. With `O=P(O)(O)C(NC1CCCCCCC1)P(=O)(O)O` [(CYCLOOCTYLAMINO)METHYLENEDIPHOSPHONIC ACID], the IC50 turned out to be 200 µM. Next, `O=P(O)(O)C(NC1CCCC1)P(=O)(O)O` [(CYCLOPENTYLAMINO)METHYLENEDIPHOSPHONIC ACID]: 200 µM; `O=P(O)(O)C(NC1CC1)P(=O)(O)O` [(CYCLOPROPYLAMINO)METHYLENEDIPHOSPHONIC ACID]: 200 µM.

The compound `CC(C)N(C(C)C)C(P(=O)(O)O)P(=O)(O)O` [(DIISOPROPYLAMINO)METHYLENEDIPHOSPHONIC ACID] came in with an IC50 of 200 µM.

Compound `CC(C)CCNC(P(=O)(O)O)P(=O)(O)O` [(ISOPENTYLAMINO)METHYLENEDIPHOSPHONIC ACID] displayed an IC50 of 200 µM. Compound `CC(=O)NO` [ACETOHYDROXAMIC ACID] came in with an IC50 of 1030 µM.

`O=C1Cc2c([nH]c3ccc([N+](=O)[O-])cc23)-c2ccccc2N1` [ALSTERPAULLONE] came in with an IC50 of 4 µM.

In turn, `CN(C)CCC=C1c2ccccc2CCc2ccccc21` [AMITRIPTYLINE] registered an IC50 of 558 µM.

`Oc1ccc(Nc2ccnc3cc(Cl)ccc23)cc1CN1CCCC1` [AMOPYROQUINE]: the IC50 amounted to 30 µM.

In the case of `C[C@H]1[C@@H](O)O[C@@H]2O[C@@]3(C)CC[C@H]4[C@H](C)CC[C@@H]1[C@@]24OO3` [ARTENIMOL], 1000 µM corresponded to half-maximal inhibition (IC50). For `C[C@H]1[C@H](OC(=O)CCC(=O)O)O[C@@H]2O[C@@]3(C)CC[C@H]4[C@H](C)CC[C@@H]1[C@@]24OO3` [ARTESUNATE], the IC50 is 3 µM.

Turning to `O=C1C(O)=C([C@H]2CC[C@H](c3ccc(Cl)cc3)CC2)C(=O)c2ccccc21` [ATOVAQUONE], 1 µM corresponded to half-maximal inhibition (IC50). `O=C(NO)c1ccccc1` [BENZOHYDROXAMATE]: the midpoint of inhibition, the IC50, lay at 17 µM. Turning to `c1ccc2c(c1)ccc1nc3ccccc3nc12` [BENZO[A]PHENAZINE], half-maximal inhibition (IC50) required 20 µM. `CC(CCCN)Nc1ccnc2cc(Cl)ccc12` (stereo not drawn) [BIDESETHYL CHLOROQUINE] showed an IC50 of 134 µM. Take `CC(C)NC(=N)NC(=N)Nc1ccc(Cl)c(Cl)c1` [CHLORPROGUANIL]: the 50% inhibitory concentration (IC50) came out at 9 µM. Compared with the last compound, the IC50 is about 15-fold lower. With `CN(C)CCCN1c2ccccc2Sc2ccc(Cl)cc21` [CHLORPROMAZINE], the IC50 amounted to 28 µM. Next, `C=C[C@H]1CN2CC[C@H]1C[C@H]2[C@H](O)c1ccnc2ccccc12` [CINCHONIDINE]: 27 µM; `C=C[C@H]1CN2CC[C@H]1C[C@@H]2[C@@H](O)c1ccnc2ccccc12` [CINCHONINE]: 23 µM; `CN(C)CCCC1(c2ccc(F)cc2)OCc2cc(C#N)ccc21` (stereo not drawn) [CITALOPRAM]: 222 µM. The compound `CC1(C)N=C(N)N=C(N)N1c1ccc(Cl)cc1` [CYCLOGUANIL] gave a 50% inhibitory concentration (IC50) of 3 µM. Next, `CC(CCCN1CCCC1)Nc1ccnc2cc(Cl)ccc12` (stereo not drawn) [Chloroquine-pyrolidinyl]: 44 µM; `Nc1ccc(S(=O)(=O)c2ccc(N)cc2)cc1` [DAPSONE]: 18 µM. `CCN(CC)Cc1cc(Nc2ccnc3cc(Cl)ccc23)cc(-c2ccc(Cl)cc2)c1` [DEHYDROXY TEBAQUINE] returned an IC50 of 51 µM. `CCNCc1cc(Nc2ccnc3cc(Cl)ccc23)ccc1O` [DESETHYL AMODIAQUINE] registered an IC50 of 73 µM. Consider `CCNCCCC(C)Nc1ccnc2cc(Cl)ccc12` (stereo not drawn) [DESETHYLCHLOROQUINE], for which half-maximal inhibition (IC50) required 3 µM. In the case of `CNCCCN1c2ccccc2CCc2ccccc21` [DESIPRAMINE], the IC50 is 12 µM. For `C[C@H]1c2cccc(O)c2C(=O)C2=C(O)[C@]3(O)C(=O)C(C(N)=O)=C(O)[C@@H](N(C)C)[C@@H]3[C@@H](O)[C@@H]21` [DOXYCYCLINE], 18 µM corresponded to half-maximal inhibition (IC50). This IC50 is about 1.5-fold higher than that of the compound before. As to `CC[C@H]1OC(=O)[C@H](C)[C@@H](O[C@H]2C[C@@](C)(OC)[C@@H](O)[C@H](C)O2)[C@H](C)[C@@H](O[C@@H]2O[C@H](C)C[C@H](N(C)C)[C@H]2O)[C@](C)(O)C[C@@H](C)C(=O)[C@H](C)[C@@H](O)[C@]1(C)O` [ERYTHROMYCIN], the IC50 worked out at 18 µM. In other words, the double-digit micromolar range. Next, `CCCCN(CCCC)CCC(O)c1cc2c(Cl)cc(Cl)cc2c2cc(C(F)(F)F)ccc12` (stereo not drawn) [HALOFANTRINE]: 185 µM; `NC(=O)NO` [HYDROXYUREA]: 792 µM; `C=C[C@@H]1CN2CC[C@@]3(CNc4cc(O)ccc43)[C@@H]2C[C@@H]1C[C@H]1c2[nH]c3ccccc3c2CCN1C` [ISOSTRYCHNOFOLINE]: 6 µM. In turn, `O=C1Cc2c([nH]c3ccc(Br)cc23)-c2ccccc2N1` [KENPAULLONE] gave an IC50 of 4 µM.

`Cc1c(OCC(F)(F)F)ccnc1C[S+]([O-])c1nc2ccccc2[nH]1` (stereo not drawn) [LANSOPRAZOLE]: the midpoint of inhibition, the IC50, lay at 11 µM. Turning to `C=C(C)[C@@H]1CC[C@]2(C)CC[C@]3(C)[C@H](CC[C@@H]4[C@@]5(C)CC[C@H](O)C(C)(C)[C@@H]5CC[C@]43C)[C@@H]12` [LUPEOL], the IC50 turned out to be 28 µM. This IC50 is about 2.5-fold higher than that of the compound before. Compound `OC(c1cc(C(F)(F)F)nc2c(C(F)(F)F)cccc12)C1CCCCN1` (stereo not drawn) [MEFLOQUINE] had an IC50 of 5 µM. Then `CN(C)c1ccc(O)c2c1C[C@H]1C[C@H]3[C@H](N(C)C)C(O)=C(C(N)=O)C(=O)[C@@]3(O)C(O)=C1C2=O` [MINOCYCLINE], with 3 µM; and `CCn1cc(C(=O)O)c(=O)c2cc(F)c(N3CCNCC3)cc21` [NORFLOXACIN], with 75 µM. Then `Cn1cnc2c(NCc3ccccc3)nc(NCCO)nc21` [OLOMOUCINE], with 3 µM; and `COc1ccc2[nH]c([S+]([O-])Cc3ncc(C)c(OC)c3C)nc2c1` (stereo not drawn) [OMEPRAZOLE], with 76 µM; and `CNCC(O)CC12CCC(c3ccccc31)c1ccccc12` (stereo not drawn) [OXAPROTILINE], with 245 µM. On to `CCCCC1C(=O)N(c2ccccc2)N(c2ccc(O)cc2)C1=O` (stereo not drawn) [OXYPHENBUTAZONE ANHYDROUS], for which the IC50 came to 15 µM. This IC50 is about 16-fold lower than that of the compound before. `CN(C)[C@@H]1C(O)=C(C(N)=O)C(=O)[C@@]2(O)C(O)=C3C(=O)c4c(O)cccc4[C@@](C)(O)[C@H]3[C@H](O)[C@@H]12` [OXYTETRACYCLINE] came in with an IC50 of 34 µM.

`COc1ccnc(C[S+]([O-])c2nc3cc(OC(F)F)ccc3[nH]2)c1OC` (stereo not drawn) [PANTOPRAZOLE]: 39 µM corresponded to half-maximal inhibition (IC50). As to `COc1cc(NC(C)CCCN)c2ncccc2c1` (stereo not drawn) [PRIMAQUINE], the IC50 was determined as 105 µM. On to `CC(=O)[C@H]1CC[C@H]2[C@@H]3CCC4=CC(=O)CC[C@]4(C)[C@H]3CC[C@]12C` [PROGESTERONE], for which the IC50 was 24 µM.
